Measurements taken from article PMC9161374 (Science Translational Medicine, 2022).
Values joined by “and” are separate entries in the source; they are usually repeats but may differ in a detail not shown here. Equal entries are not always repeated. Where two headings read alike, the source gives them in different places.

Experiments:
[1] = tested on: SARS-CoV-2 replicon system (pBAC-SARS-CoV-2-Replicon-Luc); experiment: microbe, parasite or virus in culture; type: cell-based; conditions: Severe acute respiratory syndrome coronavirus 2, HEK-293T, 60 h
[2] = tested on: SARS-CoV-2 (B.1); experiment: Anti-SARS-CoV-2 activity in Vero E6 cells (viral yield by qRT-PCR); type: cell-based
[3] = tested on: SARS-CoV-2 (Beta, B.1.351); experiment: microbe, parasite or virus in culture; type: cell-based; conditions: for EC50: read-out: EC50 in Vero E6 cells, SARS-CoV-2 (Beta, B.1.351); for % Inhibition: beta
[4] = tested on: SARS-CoV-2 (Delta, B.1.617.2); experiment: microbe, parasite or virus in culture; type: cell-based; conditions: for % Inhibition: delta
[5] = tested on: SARS-CoV-2 (B.1) in Huh7 cells; experiment: Anti-SARS-CoV-2 activity in Huh7 cells (viral yield by qRT-PCR); type: cell-based; conditions: B.1, MOI 0.05, 48 h
[6] = CCK-8 cell viability assay; type: cell-based, African green monkey; conditions: African green monkey; Vero E6 cells, 48 h, CCK8
Procedure, shortened: (§1)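 Vero E6 cells, 20,000/well, exposed to compound at 0–200 μM (0, 0.01, 0.1, 1, 5, 10, 50, 75, 100, 200 μM) for 48 h; viability read by CCK-8 and expressed as percentage versus drug concentration, mean ± SD.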

[7] = tested on: Vero E6 cells; experiment: CCK-8 cell viability assay; type: cell-based, African green monkey; conditions: individual replicate values, Fig.S4
Procedure, shortened: as §1

[8] = Permeability and efflux ratio in Caco-2 cells; type: in vitro ADME; conditions: human
Text: ATV019, and ATV020 in Caco-2 cells.
Compound Caco-2 AB/BA (Papp (10-6 cm/s)) a Efflux ratio

[9] = Tissue distribution study in rats; type: in vivo, Sprague Dawley rats; conditions: rat, oral 100 mg/kg; for Cmax, RTP in kidney / Cmax, RTP in lung / Cmax, GS-441525 in brain / Cmax, GS-441525 in kidney / Cmax, GS-441525 in lung: individual animals
Experimental: Three rats in each group were anesthetized at 1-, 4-, and 24-hours post-dosing. Blood samples were collected into the heparinized tubes which containing PhosSTOP and DTNB and centrifuged. Tissue samples, including liver, kidney, and lung were harvested after perfusion with saline and immediately homogenized for further analysis as previously described ([64]). […] For RMP and RTP determination, 50 μL of plasma or homogenate was immediately added to 150 μL of 2% formic acid and 5 μL of 10 μM ^13C,^15N-adenosine triphosphate (ATP) aqueous solution, then vortexed thoroughly and centrifuged at 4°C. Supernatant in a volume of 180 μL was mixed with an equivalent volume of water for solid-phase extraction (SPE) with a weak anion exchange plate (Waters Oasis WAX μElution plate). Finally, the eluate was gently evaporated to dryness under a gentle stream of air, and the residue was reconstituted with 100 μL H2O for analysis on a Waters Positive Pressure-96 processor.

N#C[C@@]1(c2ccc3c(N)ncnn23)O[C@H](CO)[C@@H](O)[C@H]1O [GS-441524, reference compound]
EC50 ([1]; read-out: EC50 (Confidence 95%), replicon): 955 nM
EC90 ([1]; read-out: EC90 (Confidence 95%), replicon): 3.25 µM
% Inhibition ([2]; 2 μM, replicates, sheet Fig.S3): 71.478%
% Inhibition ([2]; 5 μM, replicates, sheet Fig.S3): 85.4877%
% Inhibition ([2]; 10 μM, replicates, sheet Fig.S3): 86.8803%
% Inhibition ([2]; B.1, 1 uM, Vero E6, replicates, 1 µM): 3.349%
% Inhibition ([2]; B.1, 2 uM, Vero E6, replicates, 2 µM): 80.3269%
% Inhibition ([2]; B.1, 5 uM, Vero E6, replicates, 5 µM): 96.5344%
% Inhibition ([2]; B.1, 10 uM, Vero E6, replicates, 10 µM): 98.7837%
% Inhibition ([2]; B.1, 50 uM, Vero E6, replicates, 50 µM): 98.8136%
inhibition at 0.1 µM ([2]; Severe acute respiratory syndrome coronavirus 2, Vero C1008, 0.1 μM, replicates, sheet Fig.S3): 0%
inhibition at 0.5 µM ([2]; Severe acute respiratory syndrome coronavirus 2, Vero C1008, 0.5 μM, replicates, sheet Fig.S3): 0%
inhibition at 1 µM ([2]; Severe acute respiratory syndrome coronavirus 2, Vero C1008, 1 μM, replicates, sheet Fig.S3): 0%
inhibition at 2 µM ([2]; Severe acute respiratory syndrome coronavirus 2, Vero C1008, 2 μM, replicates, sheet Fig.S3): 72.7%
inhibition at 5 µM ([2]; Severe acute respiratory syndrome coronavirus 2, Vero C1008, 5 μM, replicates, sheet Fig.S3): 85.9%
inhibition at 10 µM ([2]; Severe acute respiratory syndrome coronavirus 2, Vero C1008, 10 μM, replicates, sheet Fig.S3): 90.7%
inhibition at 0.01 µM ([2]; Severe acute respiratory syndrome coronavirus 2, Vero C1008, B.1, 0.01 uM, Vero E6, replicates): 0%
inhibition at 0.1 µM ([2]; Severe acute respiratory syndrome coronavirus 2, Vero C1008, B.1, 0.1 uM, Vero E6, replicates): 0%
inhibition at 0.25 µM ([2]; Severe acute respiratory syndrome coronavirus 2, Vero C1008, B.1, 0.25 uM, Vero E6, replicates): 0%
inhibition at 0.5 µM ([2]; Severe acute respiratory syndrome coronavirus 2, Vero C1008, B.1, 0.5 uM, Vero E6, replicates): 0%
inhibition at 2 µM ([2]; Severe acute respiratory syndrome coronavirus 2, Vero C1008, B.1, 2 uM, Vero E6, replicates): 72.6%
inhibition at 5 µM ([2]; Severe acute respiratory syndrome coronavirus 2, Vero C1008, B.1, 5 uM, Vero E6, replicates): 95.7%
inhibition at 10 µM ([2]; Severe acute respiratory syndrome coronavirus 2, Vero C1008, B.1, 10 uM, Vero E6, replicates): 98.5%
inhibition at 50 µM ([2]; Severe acute respiratory syndrome coronavirus 2, Vero C1008, B.1, 50 uM, Vero E6, replicates): 98.7%
EC90 ([2]; Severe acute respiratory syndrome coronavirus 2, Vero C1008, read-out: EC90 (Confidence 95%)): 2390 nM
EC50 ([2]; Severe acute respiratory syndrome coronavirus 2, Vero C1008, MOI 0.05, 48 h): 1710 nM
EC50 ([3]; Severe acute respiratory syndrome coronavirus 2, Vero C1008, 48 h): 1340 nM
inhibition at 0.01 µM ([3]; Severe acute respiratory syndrome coronavirus 2, Vero C1008, beta, 0.01 uM, Vero E6, replicates): 0%
inhibition at 0.1 µM ([3]; Severe acute respiratory syndrome coronavirus 2, Vero C1008, beta, 0.1 uM, Vero E6, replicates): 0%
inhibition at 0.25 µM ([3]; Severe acute respiratory syndrome coronavirus 2, Vero C1008, beta, 0.25 uM, Vero E6, replicates): 0%
inhibition at 0.5 µM ([3]; Severe acute respiratory syndrome coronavirus 2, Vero C1008, beta, 0.5 uM, Vero E6, replicates): 0%
inhibition at 1 µM ([3]; Severe acute respiratory syndrome coronavirus 2, Vero C1008, beta, 1 uM, Vero E6, replicates): 21.8%
inhibition at 2 µM ([3]; Severe acute respiratory syndrome coronavirus 2, Vero C1008, beta, 2 uM, Vero E6, replicates): 85.3%
inhibition at 5 µM ([3]; Severe acute respiratory syndrome coronavirus 2, Vero C1008, beta, 5 uM, Vero E6, replicates): 99.5%
inhibition at 10 µM ([3]; Severe acute respiratory syndrome coronavirus 2, Vero C1008, beta, 10 uM, Vero E6, replicates): 99.9%
inhibition at 50 µM ([3]; Severe acute respiratory syndrome coronavirus 2, Vero C1008, beta, 50 uM, Vero E6, replicates): 99.9%
EC90 ([3]; Severe acute respiratory syndrome coronavirus 2, Vero C1008, read-out: EC90 (Confidence 95%), Vero-E6, Beta B.1.351): 2320 nM
% Inhibition ([3]; 1 uM, Vero E6, replicates): 23.8494%
% Inhibition ([3]; 2 uM, Vero E6, replicates): 80.342%
% Inhibition ([3]; 5 uM, Vero E6, replicates): 99.4744%
% Inhibition ([3]; 10 uM, Vero E6, replicates): 99.9464%
% Inhibition ([3]; 50 uM, Vero E6, replicates): 99.9252%
EC50 [3]: 1350 nM
EC50 ([4]; Severe acute respiratory syndrome coronavirus 2, Vero C1008, 48 h, read-out: EC50 in Vero E6 cells, SARS-CoV-2 (Delta, B.1.617.2)): 957 nM
inhibition at 0.01 µM ([4]; Severe acute respiratory syndrome coronavirus 2, Vero C1008, delta, 0.01 uM, Vero E6, replicates): 0%
inhibition at 0.1 µM ([4]; Severe acute respiratory syndrome coronavirus 2, Vero C1008, delta, 0.1 uM, Vero E6, replicates): 0%
inhibition at 0.25 µM ([4]; Severe acute respiratory syndrome coronavirus 2, Vero C1008, delta, 0.25 uM, Vero E6, replicates): 0%
inhibition at 0.5 µM ([4]; Severe acute respiratory syndrome coronavirus 2, Vero C1008, delta, 0.5 uM, Vero E6, replicates): 0%
inhibition at 2 µM ([4]; Severe acute respiratory syndrome coronavirus 2, Vero C1008, delta, 2 uM, Vero E6, replicates): 94.9%
inhibition at 5 µM ([4]; Severe acute respiratory syndrome coronavirus 2, Vero C1008, delta, 5 uM, Vero E6, replicates): 97%
inhibition at 10 µM ([4]; Severe acute respiratory syndrome coronavirus 2, Vero C1008, delta, 10 uM, Vero E6, replicates): 98.7%
inhibition at 50 µM ([4]; Severe acute respiratory syndrome coronavirus 2, Vero C1008, delta, 50 uM, Vero E6, replicates): 99.8%
EC90 ([4]; Severe acute respiratory syndrome coronavirus 2, Vero C1008, read-out: EC90 (Confidence 95%), Vero-E6, Delta B.1.617.2): 1360 nM
% Inhibition ([4]; 1 uM, Vero E6, replicates): 66.6762% and 46.4634%
% Inhibition ([4]; 2 uM, Vero E6, replicates): 93.4361%
% Inhibition ([4]; 5 uM, Vero E6, replicates): 94.7905%
% Inhibition ([4]; 10 uM, Vero E6, replicates): 95.0345%
% Inhibition ([4]; 50 uM, Vero E6, replicates): 98.9856%
EC50 ([5]; Severe acute respiratory syndrome coronavirus 2, Huh-7, read-out: EC50 (Confidence 95%) in Huh7 cells): 1760 nM
EC90 ([5]; Severe acute respiratory syndrome coronavirus 2, Huh-7, read-out: EC90 (Confidence 95%) in Huh7 cells): 2080 nM
CC50 at 48 h [6]: > 50 µM
cell viability (% of control) ([7]; 0.1 μM compound, 0.1 µM): 105.342 % of control
cell viability (% of control) ([7]; 1 μM compound, 1 µM): 107.061 % of control and 113.737 % of control
cell viability (% of control) ([7]; 2 μM compound, 2 µM): 117.342 % of control and 112.354 % of control and 107.242 % of control
cell viability (% of control) ([7]; 5 μM compound, 5 µM): 121.028 % of control and 116.731 % of control
cell viability (% of control) ([7]; 10 μM compound, 10 µM): 98.5418 % of control and 94.9348 % of control and 94.7813 % of control
cell viability (% of control) ([7]; 20 μM compound, 20 µM): 98.3543 % of control and 95.3243 % of control and 95.3532 % of control
cell viability (% of control) ([7]; 50 μM compound, 50 µM): 93.3231 % of control and 94.7045 % of control and 94.3208 % of control
Papp A→B ([8]; AB): 1.22 ×10⁻⁶ cm/s
Papp B→A ([8]; BA): 1.2 ×10⁻⁶ cm/s
Cmax ([9]; GS-441524 in brain): 0.073 µmol/kg
Cmax ([9]; GS-441524 in kidney): 35.165 µmol/kg
Cmax ([9]; GS-441524 in liver): 8.776 µmol/kg
Cmax ([9]; GS-441524 in lung): 5.601 µmol/kg
Cmax, RTP in kidney ([9]; 1h): 0 nmol/kg
Cmax, RTP in lung ([9]; 1h): 0 nmol/kg
Cmax, GS-441525 in brain ([9]; 1h, 100 mg/kg): 0.094 nmol/kg and 0 nmol/kg and 0.045 nmol/kg
Cmax, GS-441525 in kidney ([9]; 1h, 100 mg/kg): 42.2 nmol/kg and 25.492 nmol/kg and 37.804 nmol/kg
Cmax, GS-441525 in lung ([9]; 1h, 100 mg/kg): 6.048 nmol/kg and 4.152 nmol/kg and 6.604 nmol/kg
Cmax, GS-441525 in brain ([9]; 4h): 0 nmol/kg
Cmax, RTP in kidney ([9]; 4h): 0 nmol/kg
Cmax, GS-441525 in kidney ([9]; 4h, 100 mg/kg): 28.184 nmol/kg and 26.156 nmol/kg and 22.136 nmol/kg
Cmax, GS-441525 in lung ([9]; 4h, 100 mg/kg): 4.468 nmol/kg and 3.046 nmol/kg and 3.148 nmol/kg
Cmax, RTP in lung ([9]; 4h, 100 mg/kg): 0 nmol/kg (2×) and 0.0718 nmol/kg
Cmax, RTP in kidney ([9]; 24h): 0 nmol/kg
Cmax, GS-441525 in brain ([9]; 24h, 100 mg/kg): 0.0569 nmol/kg and 0.0928 nmol/kg and 0.0692 nmol/kg
Cmax, GS-441525 in kidney ([9]; 24h, 100 mg/kg): 0.0683 nmol/kg and 0.0848 nmol/kg and 0.152 nmol/kg
Cmax, GS-441525 in lung ([9]; 24h, 100 mg/kg): 0.134 nmol/kg and 0.0467 nmol/kg and 0.0435 nmol/kg
Cmax, RTP in lung ([9]; 24h, 100 mg/kg): 0 nmol/kg (2×) and 0.04488 nmol/kg
